Experimental data taken from patent publication US7524849B2, “5-arylpyrimidines as anticancer agents” (Wyeth Holdings Corporation, priority 2003, dated 2009).

Test system: COLO 205 cells
Assay: MTS cytotoxicity test with COLO 205 cells
Format: cell-based, human
Conditions: Homo sapiens, 72 h, three days with compound
Protocol: The assay, which is sold in kit form by Promega (Madison, Wis.; CellTiter 96 AQueous Non-Radioactive Cell Proliferation Assay), is based on the conversion by viable cells, but not by dead cells, of the tetrazolium salt, MTS (3-(4,5-dimethylthiazol-2-yl)-5-(3-carboxymethoxyphenyl)-2-(4-sulphophenyl)-2H-tetrazolium, inner salt), into a water-soluble colored formazan which is detected by spectrophotometry. Compounds are tested at nine concentrations, in order to determine IC50 values. For the test procedure, cells are harvested by trypsinization, washed, counted and distributed to wells of 96-well flat-bottom microtiter plates at 1000 cells per well in 200 μL of medium. In addition, one row of wells on a separate plate receives cells as above (“time 0” plate). All plates are incubated at 37° in humidified 5% CO2 in air for about 24 hr.
On day 2, compounds for test are diluted and added to wells. Compounds are dissolved in DMSO at 10 mg/mL. For each compound, nine serial 2-fold dilutions are prepared in DMSO. Ten μL of each dilution in DMSO are transferred to 100 μL of medium, mixed well, and then 5 μL of this dilution are transferred in quadruplicate to wells containing cells. The final high concentration of each compound is typically 5 μM. Plates are returned to the incubator for three days. At the time of drug addition to the experimental plates, the MTS assay is run on the “time 0” plate. This produces the “time 0 MTS value” which is related to the number of viable cells per well at the time of drug addition.
After three days of culture with test compounds (day 5 overall), the MTS assay is done on all wells of the experimental plates. The absorbance values of the quadruplicate sample wells are averaged and divided by the average of the “time 0” values. The average of control wells without drug, divided by the average “time 0” value, gives the maximal relative increase in MTS color yield due to cell growth during the final three days of culture. The average of control wells with high drug concentration, divided by the “time 0” value, gives the minimal relative color yield for cells that were completely killed. The nine values for each compound are plotted against concentration, and the concentration that produces a relative color yield half way between the maximum and minimum is taken as the IC50 value.
COLO 205 is a human colon carcinoma cell line that is used for comparative testing of the examples of this invention and several reference compounds. This line is sensitive to paclitaxel and vincristine.

Compound	IC50 [nM]
C[C@H](Nc1nc(-c2cnccn2)nc(Cl)c1-c1c(F)cc(F)cc1F)C(F)(F)F [Example 3, 6-Chloro-2-pyrazin-2-yl-N-[(1S)-2,2,2-trifluoro-1-methylethyl]-5-(2,4,6-trifluorophenyl)pyrimidin-4-amine]	51
Fc1cc(F)c(-c2c(Cl)nc(-c3cnccn3)nc2NCC(F)(F)F)c(F)c1 [Example 4, 6-Chloro-2-pyrazin-2-yl-N-(2,2,2-trifluoroethyl)-5-(2,4,6-trifluorophenyl)pyrimidin-4-amine]	84
Fc1cc(F)c(-c2c(Cl)nc(-c3ncccn3)nc2NCC(F)(F)F)c(F)c1 [Example 5, 6-Chloro-N-(2,2,2-trifluoroethyl)-5-(2,4,6-trifluorophenyl)-2,2′-bipyrimidin-4-amine]	265
Fc1cc(F)c(-c2c(Cl)nc(-c3ccncc3)nc2NCC(F)(F)F)c(F)c1 [Example 6, 6-Chloro-2-pyridin-4-yl-N-(2,2,2-trifluoroethyl)-5-(2,4,6-trifluorophenyl)pyrimidin-4-amine]	7050
Fc1cc(F)c(-c2c(Cl)nc(-c3cccnc3)nc2NCC(F)(F)F)c(F)c1 [Example 7, 6-Chloro-2-pyridin-3-yl-N-(2,2,2-trifluoroethyl)-5-(2,4,6-trifluorophenyl)pyrimidin-4-amine]	3930
Fc1cc(F)c(-c2c(Cl)nc(-c3ccccn3)nc2NCC(F)(F)F)c(F)c1 [Example 8, 6-Chloro-2-pyridin-2-yl-N-(2,2,2-trifluoroethyl)-5-(2,4,6-trifluorophenyl)pyrimidin-4-amine]	39
C[C@H](Nc1nc(-c2ccccn2)nc(Cl)c1-c1c(F)cc(F)cc1F)C(F)(F)F [Example 9, 6-Chloro-2-pyridin-2-yl-N-[(1S)-2,2,2-trifluoro-1-methylethyl]-5-(2,4,6-trifluorophenyl)pyrimidin-4-amine]	29
Fc1cc(F)c(-c2c(Cl)nc(-c3ccc4ccccc4n3)nc2NCC(F)(F)F)c(F)c1 [Example 10, 6-Chloro-2-quinolin-2-yl-N-(2,2,2-trifluoroethyl)-5-(2,4,6-trifluorophenyl)pyrimidin-4-amine]	250
Fc1cc(F)c(-c2c(Cl)nc(-c3nccc4ccccc34)nc2NCC(F)(F)F)c(F)c1 [Example 11, 6-Chloro-2-isoquinolin-1-yl-N-(2,2,2-trifluoroethyl)-5-(2,4,6-trifluorophenyl)pyrimidin-4-amine]	4680
Fc1cc(F)c(-c2c(Cl)nc(-c3cc4ccccc4cn3)nc2NCC(F)(F)F)c(F)c1 [Example 12, 6-Chloro-2-isoquinolin-3-yl-N-(2,2,2-trifluoroethyl)-5-(2,4,6-trifluorophenyl)pyrimidin-4-amine]	119
Fc1cc(F)c(-c2c(Cl)nc(-c3cccs3)nc2NCC(F)(F)F)c(F)c1 [Example 13, 6-Chloro-2-thien-2-yl-N-(2,2,2-trifluoroethyl)-5-(2,4,6-trifluorophenyl)pyrimidin-4-amine]	3460
Fc1cc(F)c(-c2c(Cl)nc(-c3ccco3)nc2NCC(F)(F)F)c(F)c1 [Example 14, 6-Chloro-2-(2-furyl)-N-(2,2,2-trifluoroethyl)-5-(2,4,6-trifluorophenyl)pyrimidin-4-amine]	232
Fc1cc(F)c(-c2c(Cl)nc(-n3cccn3)nc2NCC(F)(F)F)c(F)c1 [Example 16, 6-Chloro-2-(1H-pyrazol-1-yl)-N-(2,2,2-trifluoroethyl)-5-(2,4,6-trifluorophenyl)pyrimidin-4-amine]	53
C[C@H](Nc1nc(-n2cccn2)nc(Cl)c1-c1c(F)cc(F)cc1F)C(F)(F)F [Example 17, 6-Chloro-2-(1H-pyrazol-1-yl)-N-[(1S)-2,2,2-trifluoro-1-methylethyl)-5-(2,4,6-trifluorophenyl)pyrimidin-4-amine]	19
Fc1cc(F)c(-c2c(Cl)nc(-n3cccc3)nc2NCC(F)(F)F)c(F)c1 [Example 18, 6-Chloro-2-(1H-pyrrol-1-yl)-N-(2,2,2-trifluoroethyl)-5-(2,4,6-trifluorophenyl)pyrimidin-4-amine]	7080
CN(C)CCOc1cc(F)c(-c2c(Cl)nc(N(C)C#N)nc2NCC(F)(F)F)c(F)c1 [Example 22, 4-Chloro-5-{4-[2-(dimethylamino)ethoxy]-2,6-difluorophenyl}-6-[(2,2,2-trifluoroethyl)amino]pyrimidin-2-yl(methyl)cyanamide]	532
CNCCCOc1cc(F)c(-c2c(Cl)nc(-c3cnccn3)nc2N[C@@H](C)C(F)(F)F)c(F)c1 [Example 24, 6-Chloro-5-{2,6-difluoro-4-[3-(methylamino)propoxy]phenyl}-2-pyrazin-2-yl-N-[(1S)-2,2,2-trifluoro-1-methylethyl]pyrimidin-4-amine]	6.9
CN(C)CCCOc1cc(F)c(-c2c(Cl)nc(-c3cnccn3)nc2NCC(F)(F)F)c(F)c1 [Example 25, 6-Chloro-5-{4-[3-(dimethylamino)propoxy]-2,6-difluorophenyl}-2-pyrazin-2-yl-N-(2,2,2-trifluoroethyl)pyrimidin-4-amine]	22
CN(C)CCCOc1cc(F)c(-c2c(Cl)nc(-c3ncccn3)nc2NCC(F)(F)F)c(F)c1 [Example 26, 6-Chloro-5-{4-[3-(dimethylamino)propoxy]-2,6-difluorophenyl}-N-(2,2,2-trifluoroethyl)-2,2′-bipyrimidin-4-amine]	49
CN(C)CCOc1cc(F)c(-c2c(Cl)nc(-c3cnccn3)nc2NCC(F)(F)F)c(F)c1 [Example 27, 6-Chloro-5-{4-[2-(dimethylamino)ethoxy]-2,6-difluorophenyl}-2-pyrazin-2-yl-N-(2,2,2-trifluoroethyl)pyrimidin-4-amine]	128
CN(C)CCCCOc1cc(F)c(-c2c(Cl)nc(-c3cnccn3)nc2NCC(F)(F)F)c(F)c1 [Example 28, 6-Chloro-5-{4-[4-(dimethylamino)butoxy]-2,6-difluorophenyl}-2-pyrazin-2-yl-N-(2,2,2-trifluoroethyl)pyrimidin-4-amine]	32
Cn1ccnc1-c1nc(Cl)c(-c2c(F)cc(F)cc2F)c(NCC(F)(F)F)n1 [Example 34, 6-Chloro-2-(1-methyl-1H-imidazol-2-yl)-N-(2,2,2-trifluoroethyl)-5-(2,4,6-trifluorophenyl)pyrimidin-4-amine]	77
Fc1cc(F)c(-c2c(Cl)nc(-c3ccc[nH]3)nc2NCC(F)(F)F)c(F)c1 [Example 35, 6-Chloro-2-(1H-pyrrol-2-yl)-N-(2,2,2-trifluoroethyl)-5-(2,4,6-trifluorophenyl)pyrimidin-4-amine]	7030
Cc1ccnc(-c2nc(Cl)c(-c3c(F)cc(F)cc3F)c(NCC(F)(F)F)n2)c1 [Example 36, 6-Chloro-2-(4-methylpyridin-2-yl)-N-(2,2,2-trifluoroethyl)-5-(2,4,6-trifluorophenyl)pyrimidin-4-amine]	109
O=[N+]([O-])c1ccc(-c2nc(Cl)c(-c3c(F)cc(F)cc3F)c(NCC(F)(F)F)n2)nc1 [Example 37, 6-Chloro-2-(5-nitropyridin-2-yl)-N-(2,2,2-trifluoroethyl)-5-(2,4,6-trifluorophenyl)pyrimidin-4-amine]	132
CN(C)CCCOc1cc(F)c(-c2c(Cl)nc(-c3ccc(N=[N+]=[N-])cn3)nc2NCC(F)(F)F)c(F)c1 [Example 38, 2-(5-Azidopyridin-2-yl)-6-chloro-5-{4-[3-(dimethylamino)propoxy]-2,6-difluorophenyl}-N-(2,2,2-trifluoroethyl)pyrimidin-4-amine]	23

Same assay, conditions: three days with compound

Compound	IC50 [nM]
4-Chloro-6-[(2,2,2-trifluoroethyl)amino]-5-(2,4,6-trifluorophenyl)pyrimidin-2-yl]ethylcyanamide [Example 2]	304
